# Active and inactive are the calls of the source.
# Key:
# [1] = decrease of insulin promoter-GFP reporter – imaging, high-content screening, mouse beta cells (AID 1628); assay type: functional; conditions: MIN6
# [2] = MIN6 cell viability loss – mouse insulinoma, cytotoxicity control, dose response (AID 2122); assay type: functional;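 note: confirmatory high-throughput counterscreen run to flag cytotoxic compounds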
# [3] = THP-1 cell cytotoxicity, dose response, cytotoxicity control for non-replicating M. tuberculosis project (AID 489025); assay type: functional
# [4] = HepG2 cell cytotoxicity, dose response, cytotoxicity control for non-replicating M. tuberculosis project (AID 489018); assay type: functional; conditions: Mycobacterium tuberculosis
# [5] = Vero E6 cell cytotoxicity, dose response, cytotoxicity control for non-replicating M. tuberculosis project, secondary assay (AID 492998); assay type: functional, VeroE6; conditions: Vero C1008
# cells [6] = assay type: functional
# [7] = target: T1, Corticotropin-releasing factor receptor 2/Corticotropin-releasing factor-binding protein (Homo sapiens, UniProt P24387+Q13324); experiment: Dose Response confirmation of uHTS hits for small molecule antagonists of the CRF-binding protein and CRF-R2 receptor complex.; assay type: functional; conditions: read-out: IC50_Mean
# T1 sequence (Q13324 whole entry): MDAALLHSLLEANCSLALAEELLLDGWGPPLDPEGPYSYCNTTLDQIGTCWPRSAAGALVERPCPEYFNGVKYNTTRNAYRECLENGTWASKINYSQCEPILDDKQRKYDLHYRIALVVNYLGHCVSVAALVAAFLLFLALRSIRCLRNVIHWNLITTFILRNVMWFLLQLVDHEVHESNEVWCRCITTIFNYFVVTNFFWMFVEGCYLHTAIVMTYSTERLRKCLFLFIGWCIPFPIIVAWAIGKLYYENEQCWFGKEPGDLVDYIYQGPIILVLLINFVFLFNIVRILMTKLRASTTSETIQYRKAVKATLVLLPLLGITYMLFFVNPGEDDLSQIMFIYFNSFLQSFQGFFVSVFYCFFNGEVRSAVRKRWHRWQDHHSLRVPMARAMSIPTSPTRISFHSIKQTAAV
# T1 sequence (P24387 whole entry): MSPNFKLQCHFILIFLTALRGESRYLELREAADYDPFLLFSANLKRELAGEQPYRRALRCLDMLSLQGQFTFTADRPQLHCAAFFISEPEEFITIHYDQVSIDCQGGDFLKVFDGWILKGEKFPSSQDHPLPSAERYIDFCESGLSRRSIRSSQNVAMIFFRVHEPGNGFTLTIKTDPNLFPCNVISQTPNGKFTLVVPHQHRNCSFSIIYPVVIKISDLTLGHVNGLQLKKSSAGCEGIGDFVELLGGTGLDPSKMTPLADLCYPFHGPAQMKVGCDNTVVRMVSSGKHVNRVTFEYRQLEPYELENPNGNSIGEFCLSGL
# [8] = reduction of Shn3 3'UTR-driven luciferase in osteoblasts – cell-based, Clone20 osteoblasts, firefly luciferase, cherry-picked, dose response (AID 624132); assay type: functional;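 note: firefly luciferase luminescence from reporter carrying the Shn3 3'UTR in osteoblasts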
# [9] = loss of viability in HepG2 cells – cell-based, CellTiter-Glo, cherry-picked, cytotoxicity control for Shn3 inhibitor project, dose response (AID 624134); assay type: functional
# [10] = target: T1, Corticotropin-releasing factor receptor 2/Corticotropin-releasing factor-binding protein; experiment: activators of CRF receptor 2 with binding protein – uHTS hits, confirmation (AID 602473); assay type: functional; conditions: read-out: EC50_Mean
# [11] = non-specific 3'UTR reporter inhibition in Clone20-Shn3RL – cell-based, Renilla luciferase, cherry-picked, counter-screen for Shn3 inhibitor project, dose response (AID 624133); assay type: functional
# [12] = target: Peroxisome proliferator-activated receptor gamma/Nuclear receptor coactivator 1 (Homo sapiens, UniProt P37231); experiment: (§1) TR-FRET dose response biochemical High Throughput Screening assay for agonists of the steroid receptor coactivator 1 (SRC-1) recruitment by the peroxisome proliferator-activated receptor gamma (PPAR gamma): non-selective agonists. [Related pubchem assays (depositor defined):AID1300, AID1808, AID504735, AID631]; assay type: protein assay
# Chain of Peroxisome proliferator-activated receptor gamma/Nuclear receptor coactivator 1 (P37231 whole entry): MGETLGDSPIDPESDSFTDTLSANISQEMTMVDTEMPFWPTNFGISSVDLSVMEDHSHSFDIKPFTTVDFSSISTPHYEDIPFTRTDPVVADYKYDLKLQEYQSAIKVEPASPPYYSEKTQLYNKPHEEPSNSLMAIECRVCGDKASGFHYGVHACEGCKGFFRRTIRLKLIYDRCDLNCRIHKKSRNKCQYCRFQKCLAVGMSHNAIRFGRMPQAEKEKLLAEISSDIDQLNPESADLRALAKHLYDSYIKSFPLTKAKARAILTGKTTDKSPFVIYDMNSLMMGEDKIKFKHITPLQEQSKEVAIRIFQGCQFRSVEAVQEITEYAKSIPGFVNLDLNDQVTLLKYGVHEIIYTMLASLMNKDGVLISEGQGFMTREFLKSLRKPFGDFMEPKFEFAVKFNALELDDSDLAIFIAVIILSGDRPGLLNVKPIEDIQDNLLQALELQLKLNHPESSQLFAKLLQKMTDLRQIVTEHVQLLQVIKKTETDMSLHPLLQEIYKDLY
# Chain of Peroxisome proliferator-activated receptor gamma/Nuclear receptor coactivator 1 (Q15788 whole entry, further chain): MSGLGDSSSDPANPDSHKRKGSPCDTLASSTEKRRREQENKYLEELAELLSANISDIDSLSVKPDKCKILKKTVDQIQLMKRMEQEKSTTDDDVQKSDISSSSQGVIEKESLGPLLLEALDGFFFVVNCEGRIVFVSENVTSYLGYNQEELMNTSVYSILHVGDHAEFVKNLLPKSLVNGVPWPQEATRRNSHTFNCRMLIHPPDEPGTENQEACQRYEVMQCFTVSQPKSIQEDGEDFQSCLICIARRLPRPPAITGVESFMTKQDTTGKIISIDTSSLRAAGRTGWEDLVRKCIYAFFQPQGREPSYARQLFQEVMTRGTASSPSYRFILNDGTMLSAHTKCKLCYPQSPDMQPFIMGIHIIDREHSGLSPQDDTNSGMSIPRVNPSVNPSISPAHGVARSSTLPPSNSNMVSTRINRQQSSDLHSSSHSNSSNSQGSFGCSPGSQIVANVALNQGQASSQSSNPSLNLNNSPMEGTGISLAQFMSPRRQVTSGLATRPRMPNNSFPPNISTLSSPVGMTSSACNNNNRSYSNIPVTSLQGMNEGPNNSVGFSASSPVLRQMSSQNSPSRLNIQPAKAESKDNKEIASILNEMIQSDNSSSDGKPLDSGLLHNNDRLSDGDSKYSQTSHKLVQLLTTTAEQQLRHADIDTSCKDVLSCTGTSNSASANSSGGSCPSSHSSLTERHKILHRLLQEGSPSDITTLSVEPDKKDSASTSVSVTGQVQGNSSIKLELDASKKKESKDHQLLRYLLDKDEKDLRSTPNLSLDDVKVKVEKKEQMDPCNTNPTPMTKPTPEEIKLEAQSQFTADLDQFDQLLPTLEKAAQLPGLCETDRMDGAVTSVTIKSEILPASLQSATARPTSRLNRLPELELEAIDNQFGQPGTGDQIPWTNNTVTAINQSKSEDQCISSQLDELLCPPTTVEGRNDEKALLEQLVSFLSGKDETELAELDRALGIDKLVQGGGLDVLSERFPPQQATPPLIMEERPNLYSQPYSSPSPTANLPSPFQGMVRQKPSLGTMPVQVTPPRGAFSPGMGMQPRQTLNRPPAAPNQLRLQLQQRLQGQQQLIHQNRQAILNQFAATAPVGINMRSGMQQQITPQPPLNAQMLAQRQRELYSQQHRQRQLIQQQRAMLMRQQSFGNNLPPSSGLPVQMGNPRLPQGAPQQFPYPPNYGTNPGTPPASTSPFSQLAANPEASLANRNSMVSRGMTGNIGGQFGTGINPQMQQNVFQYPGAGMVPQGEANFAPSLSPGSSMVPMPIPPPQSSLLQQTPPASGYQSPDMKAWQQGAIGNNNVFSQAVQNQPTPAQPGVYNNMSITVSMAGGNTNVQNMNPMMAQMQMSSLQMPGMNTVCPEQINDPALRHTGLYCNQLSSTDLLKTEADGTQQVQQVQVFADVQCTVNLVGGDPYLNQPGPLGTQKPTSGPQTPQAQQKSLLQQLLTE
# [13] = target: Peroxisome proliferator-activated receptor gamma/Nuclear receptor coactivator 3 (Homo sapiens, UniProt P37231); experiment: as §1, with “3 (SRC-3)” for “1 (SRC-1)”, “assays: 1301 (Confirmation screen.), 1048 (Primary screen.)]” for “assays (depositor defined):AID1300, AID1808, AID504735, AID631]”; assay type: functional
# Chain of Peroxisome proliferator-activated receptor gamma/Nuclear receptor coactivator 3 (P37231 whole entry): as the sequence (P37231 whole entry) above
# Chain of Peroxisome proliferator-activated receptor gamma/Nuclear receptor coactivator 3 (Q9Y6Q9 whole entry, further chain): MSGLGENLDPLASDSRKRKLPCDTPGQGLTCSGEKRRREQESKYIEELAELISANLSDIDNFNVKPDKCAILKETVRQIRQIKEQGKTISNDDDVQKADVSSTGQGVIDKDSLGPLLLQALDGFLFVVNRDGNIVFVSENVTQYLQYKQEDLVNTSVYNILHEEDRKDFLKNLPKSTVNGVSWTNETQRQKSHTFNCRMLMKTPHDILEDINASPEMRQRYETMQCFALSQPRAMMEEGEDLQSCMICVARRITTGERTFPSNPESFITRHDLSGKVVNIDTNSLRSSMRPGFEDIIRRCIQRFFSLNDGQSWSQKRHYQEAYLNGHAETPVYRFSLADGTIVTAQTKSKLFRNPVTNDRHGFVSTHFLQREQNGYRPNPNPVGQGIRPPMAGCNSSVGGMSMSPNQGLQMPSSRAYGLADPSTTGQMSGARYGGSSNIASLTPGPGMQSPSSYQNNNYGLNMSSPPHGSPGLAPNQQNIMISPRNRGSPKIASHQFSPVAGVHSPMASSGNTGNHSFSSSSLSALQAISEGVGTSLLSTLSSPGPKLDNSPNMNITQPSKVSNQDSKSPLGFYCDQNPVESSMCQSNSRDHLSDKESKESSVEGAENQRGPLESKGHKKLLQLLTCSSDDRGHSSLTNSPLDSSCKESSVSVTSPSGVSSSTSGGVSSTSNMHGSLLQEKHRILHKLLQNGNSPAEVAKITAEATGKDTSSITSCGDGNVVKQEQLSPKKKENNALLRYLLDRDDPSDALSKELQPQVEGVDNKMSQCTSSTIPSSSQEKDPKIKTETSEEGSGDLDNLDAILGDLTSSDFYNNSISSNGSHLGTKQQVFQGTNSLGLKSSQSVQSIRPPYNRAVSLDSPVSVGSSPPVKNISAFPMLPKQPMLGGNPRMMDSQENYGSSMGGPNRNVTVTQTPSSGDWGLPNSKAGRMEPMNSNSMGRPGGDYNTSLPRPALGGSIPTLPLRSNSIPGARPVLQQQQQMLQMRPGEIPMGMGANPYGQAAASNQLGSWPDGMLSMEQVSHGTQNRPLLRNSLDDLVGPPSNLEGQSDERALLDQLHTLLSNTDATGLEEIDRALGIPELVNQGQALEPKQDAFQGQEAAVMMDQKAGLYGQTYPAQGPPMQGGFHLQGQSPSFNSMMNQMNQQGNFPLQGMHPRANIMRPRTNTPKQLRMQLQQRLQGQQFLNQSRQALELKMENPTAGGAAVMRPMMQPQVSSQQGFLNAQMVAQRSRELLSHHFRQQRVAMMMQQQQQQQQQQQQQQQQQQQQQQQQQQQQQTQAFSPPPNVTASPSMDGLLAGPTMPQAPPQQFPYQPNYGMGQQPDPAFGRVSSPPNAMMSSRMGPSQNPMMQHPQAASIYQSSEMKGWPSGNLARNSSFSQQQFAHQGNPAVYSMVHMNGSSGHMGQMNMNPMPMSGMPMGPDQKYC
# [14] = target: Peroxisome proliferator-activated receptor gamma/Nuclear receptor coactivator 2 (Homo sapiens, UniProt P37231); experiment: TR-FRET dose response biochemical High Throughput Screening assay for agonists of the steroid receptor coactivator 2 (SRC-2) recruitment by the peroxisome proliferator-activated receptor gamma (PPAR gamma): non-selective agonists. [Related pubchem assays: 1297, 1032 ]; assay type: functional
# [15] = target: Mitogen-activated protein kinase 10 (Homo sapiens, UniProt P53779); experiment: Dose response biochemical screening assay for inhibitors of c-Jun N-Terminal Kinase 3 (JNK3). [Related pubchem assays: 746 ]
# Major prion protein = Major prion protein (Homo sapiens, UniProt P04156); assay type: functional, cell-based
# cells [16] = experiment: cells
# Cytochrome P450 3A4 = Cytochrome P450 3A4 (Homo sapiens, UniProt P08684);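 note: CYP3A4 tested as one member of a cytochrome P450 panel screen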
# Chain of Cytochrome P450 3A4 (P08684 whole entry): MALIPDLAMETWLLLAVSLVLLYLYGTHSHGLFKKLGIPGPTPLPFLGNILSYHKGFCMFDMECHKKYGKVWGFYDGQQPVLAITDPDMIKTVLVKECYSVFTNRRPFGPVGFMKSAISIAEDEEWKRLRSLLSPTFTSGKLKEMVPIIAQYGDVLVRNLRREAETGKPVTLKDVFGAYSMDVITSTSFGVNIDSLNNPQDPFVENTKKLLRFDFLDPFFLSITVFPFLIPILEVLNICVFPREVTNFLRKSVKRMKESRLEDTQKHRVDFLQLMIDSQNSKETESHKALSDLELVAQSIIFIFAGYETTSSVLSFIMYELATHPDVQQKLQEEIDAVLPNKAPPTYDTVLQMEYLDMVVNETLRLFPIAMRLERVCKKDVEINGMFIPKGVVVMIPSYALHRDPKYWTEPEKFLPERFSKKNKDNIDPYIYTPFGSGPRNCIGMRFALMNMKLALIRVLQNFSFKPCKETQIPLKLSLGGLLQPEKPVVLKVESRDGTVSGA
# [17] = target: T2, Heat shock factor protein 1 (Mus musculus, UniProt P38532); experiment: enhancement of HSF1-driven luciferase signal – cell-based, NIH3T3, luminescence, dose retest, confirmation (AID 435004); assay type: functional;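 note: stress induced by proteasome inhibitor MG132 added 30 min after compound; luciferase reporter driven by HSF1 response element in NIH3T3 cells; actives raise luminescence as potentiators of the MG132 stress response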
# T2 sequence (P38532 whole entry): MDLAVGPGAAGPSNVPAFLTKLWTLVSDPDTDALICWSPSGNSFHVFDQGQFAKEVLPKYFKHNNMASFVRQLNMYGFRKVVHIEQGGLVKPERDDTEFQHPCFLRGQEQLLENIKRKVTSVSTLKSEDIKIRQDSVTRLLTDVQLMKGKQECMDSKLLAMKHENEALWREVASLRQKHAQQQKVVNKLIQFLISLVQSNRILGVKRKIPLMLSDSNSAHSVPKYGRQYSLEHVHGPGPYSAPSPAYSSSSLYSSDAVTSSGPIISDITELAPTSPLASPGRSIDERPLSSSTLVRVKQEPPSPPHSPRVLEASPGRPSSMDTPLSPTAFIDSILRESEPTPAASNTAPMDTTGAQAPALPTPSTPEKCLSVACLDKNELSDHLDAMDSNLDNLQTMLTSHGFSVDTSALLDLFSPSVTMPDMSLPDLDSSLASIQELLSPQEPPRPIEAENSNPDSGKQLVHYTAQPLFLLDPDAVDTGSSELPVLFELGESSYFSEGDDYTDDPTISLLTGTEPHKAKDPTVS
# Cytochrome P450 2D6 = Cytochrome P450 2D6 (Homo sapiens, UniProt P10635);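 note: CYP2D6 member of a cytochrome P450 panel assay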
# Chain of Cytochrome P450 2D6 (P10635 whole entry): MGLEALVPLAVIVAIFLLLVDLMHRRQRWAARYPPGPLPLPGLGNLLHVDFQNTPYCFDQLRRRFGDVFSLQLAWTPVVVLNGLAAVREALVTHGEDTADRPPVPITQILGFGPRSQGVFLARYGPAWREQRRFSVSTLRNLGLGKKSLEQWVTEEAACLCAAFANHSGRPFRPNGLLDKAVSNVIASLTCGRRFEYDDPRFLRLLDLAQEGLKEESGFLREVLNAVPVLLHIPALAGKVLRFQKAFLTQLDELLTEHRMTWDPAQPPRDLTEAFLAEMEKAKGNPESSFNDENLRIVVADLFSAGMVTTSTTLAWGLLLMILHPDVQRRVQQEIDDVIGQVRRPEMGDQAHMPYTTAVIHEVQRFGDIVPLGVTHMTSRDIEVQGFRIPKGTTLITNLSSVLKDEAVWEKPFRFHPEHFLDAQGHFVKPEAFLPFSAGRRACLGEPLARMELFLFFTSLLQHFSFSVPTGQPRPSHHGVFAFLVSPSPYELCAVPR
# Cytochrome P450 1A2 = target: T3, Cytochrome P450 1A2 (Homo sapiens, UniProt P05177);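 note: PubChem cytochrome P450 panel assay, CYP1A2 panel member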
# T3 sequence (P05177 whole entry): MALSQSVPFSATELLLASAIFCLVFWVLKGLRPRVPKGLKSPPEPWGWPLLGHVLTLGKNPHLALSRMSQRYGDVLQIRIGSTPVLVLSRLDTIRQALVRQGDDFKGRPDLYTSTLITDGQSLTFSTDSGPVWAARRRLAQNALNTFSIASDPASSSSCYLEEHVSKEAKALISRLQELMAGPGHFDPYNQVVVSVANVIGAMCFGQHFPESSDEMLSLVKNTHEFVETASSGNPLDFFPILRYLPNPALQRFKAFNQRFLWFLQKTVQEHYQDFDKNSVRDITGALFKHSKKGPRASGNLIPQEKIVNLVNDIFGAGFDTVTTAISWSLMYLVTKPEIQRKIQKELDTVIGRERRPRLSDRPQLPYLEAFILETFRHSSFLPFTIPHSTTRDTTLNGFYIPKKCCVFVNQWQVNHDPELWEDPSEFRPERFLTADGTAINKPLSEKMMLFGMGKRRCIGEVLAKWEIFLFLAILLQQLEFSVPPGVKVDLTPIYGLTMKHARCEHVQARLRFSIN
# HEK293 [18] = experiment: inhibition of NOD1-driven NF-kB reporter – cell-based, luminescence, uHTS, primary screen (AID 1578); assay type: functional; conditions: Homo sapiens
# HEK293 [19] = experiment: cells; assay type: functional, cell-based; conditions: Homo sapiens
# HEK293 [20] = experiment: cells; assay type: functional, cell-based; conditions: Homo sapiens; remark: listed apart in the source
# HEK293 [21] = experiment: NOD2 signaling inhibitors in MDP-stimulated cells, cell-based, uHTS, luminescence (AID 2001); assay type: functional; conditions: Homo sapiens
# [22] = HEK-293T viability loss after treatment – luminescence, T-cell screen hits, cytotoxicity control for TCR NF-kB inhibitor project, dose response (AID 489026); assay type: functional, cell-based;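 note: cells exposed to compound about 14 hours before the viability readout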
# INS1 = experiment: INS-1E survival protection against cytokine death – cell-based, luminescence, retest, dose response (AID 449756); assay type: functional; conditions: Rattus norvegicus;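 note: cell death triggered by IL-1 beta plus TNF-alpha plus IFN-gamma mixture; protective hits raise ATP signal compared with cytokine alone wells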
# [23] = viability of uninfected HEp-2 cells – cell-based, HTS, cytotoxicity control for RSV inhibitor project, dose response (AID 2410); assay type: functional; conditions: human respiratory syncytial virus
# [24] = viability of PTEN-deleted HCT116 cells – cell-based, HCT116 PTEN knockout, dose response (AID 1047); assay type: functional;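 note: HCT116 colon tumor cells with PTEN knocked out; cells exposed to compound for 60 hours before readout; potency for loss of cell viability measured by luminescence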
# [25] = viability of HCT116 lacking mutant beta-catenin – cell-based, human colon tumor, dose response (AID 1045); assay type: functional;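 note: HCT116 colon tumor cells with beta catenin knocked out; cells exposed to compound for 60 hours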
# Bcl-2-related protein A1 = target: T4, Bcl-2-related protein A1 (Mus musculus, UniProt Q07440); assay type: functional;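 note: confirmatory dose–response counterscreen on Bfl-1, used to check hits from a UBC13 polyubiquitin inhibitor campaign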
# T4 sequence (Q07440 whole entry): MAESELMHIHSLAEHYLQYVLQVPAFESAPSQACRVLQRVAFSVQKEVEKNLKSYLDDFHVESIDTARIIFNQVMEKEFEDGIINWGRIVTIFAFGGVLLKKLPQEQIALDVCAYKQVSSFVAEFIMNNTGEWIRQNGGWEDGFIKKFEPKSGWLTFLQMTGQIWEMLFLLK
# [26] = target: T5, Ubiquitin-conjugating enzyme E2 N (Homo sapiens, UniProt P61088); assay type: functional
# T5 sequence (P61088 whole entry): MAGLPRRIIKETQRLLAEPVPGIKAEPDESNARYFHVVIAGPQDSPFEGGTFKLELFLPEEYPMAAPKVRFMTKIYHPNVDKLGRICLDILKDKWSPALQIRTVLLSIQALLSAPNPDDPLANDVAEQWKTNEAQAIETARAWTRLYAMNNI
# [27] = target: T5, Ubiquitin-conjugating enzyme E2 N; assay type: functional; remark: listed apart in the source
# [28] = target: T6, DNA repair protein RAD52 homolog (Homo sapiens, UniProt P43351); assay type: functional, biochemical
# T6 sequence (P43351 whole entry): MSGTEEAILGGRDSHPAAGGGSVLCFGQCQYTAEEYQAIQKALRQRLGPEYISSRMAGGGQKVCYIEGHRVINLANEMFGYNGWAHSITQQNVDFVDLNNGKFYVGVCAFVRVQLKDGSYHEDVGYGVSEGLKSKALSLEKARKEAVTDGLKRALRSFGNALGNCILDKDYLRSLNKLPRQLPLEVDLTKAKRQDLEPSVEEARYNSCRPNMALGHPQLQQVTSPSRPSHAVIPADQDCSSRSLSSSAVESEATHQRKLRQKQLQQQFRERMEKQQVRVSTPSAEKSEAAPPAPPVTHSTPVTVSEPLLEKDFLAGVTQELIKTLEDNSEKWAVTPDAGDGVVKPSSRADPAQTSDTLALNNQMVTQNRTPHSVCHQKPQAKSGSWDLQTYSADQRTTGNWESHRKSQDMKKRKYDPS
# [29] = target: Heat shock protein HSP 90-alpha (Homo sapiens, UniProt P07900); assay type: functional, organism-based
# SUMO E1/E2 = SUMO E1/E2 (Homo sapiens, UniProt P63279+Q9UBE0+Q9UBT2); experiment: SAR analysis of SUMOylation using HTRF in an in-Vitro dose response assay. [Related pubchem assays (depositor defined):AID2006, AID2011, AID2018, AID2069, AID2658]; assay type: functional
compound,measurement,setting,value
Cc1cc(C)nc(N=C(N)Nc2ccc(-c3ccccc3)cc2)n1,IC50,[1],1.56 µM (active)
same,IC50,[2],1.36 µM (active)
same,CC50,[3],9.89 µM (active)
same,CC50,[4],18.2 µM (active)
same,CC50,[5],> 20 µM (active)
same,IC50,cells [6],39 µM (active)
same,IC50,[7],> 47.1 µM (inactive)
same,AC50,[8],4.45 µM (active)
same,AC50,[9],> 70 µM (inactive)
same,EC50,[10],31.7 µM (active)
same,AC50,[11],22.6 µM (active)
COc1ccc(Cl)cc1-c1nnc(S)o1,EC50,[12],3.67 µM (active)
same,EC50,[13],> 79.4 µM (not active)
same,EC50,[14],3.4 µM (active)
same,IC50,[15],16.2 µM (not active)
same,IC50,Major prion protein,2.08 µM (active)
same,IC50,cells [16],> 138 µM (inactive)
COCC(=O)N1CCN(c2ccc([N+](=O)[O-])cc2)CC1,AC50,Cytochrome P450 3A4,inconclusive
Cn1c(=O)cc(SCC(=O)N2CCOCC2)c2ccc(Cl)cc21,EC50,[12],> 79.4 µM (inactive)
same,EC50,[13],> 79.4 µM (not active)
same,EC50,[14],> 79.4 µM (not active)
same,EC50,[17],> 260 µM (inactive)
S=C(NCCC1=CCCCC1)NCc1ccco1,IC50,[1],2.95 µM (active)
same,IC50,[2],2.64 µM (active)
COCCCNC(=O)c1ccc2c(=O)n(CC3CCCO3)c(=S)[nH]c2c1 (stereo not drawn),AC50,Cytochrome P450 2D6,0.178 µM (inconclusive)
same,AC50,Cytochrome P450 1A2,20 µM (inconclusive)
same,AC50,Cytochrome P450 3A4,inconclusive
CCn1nc(C)c(CNC(=O)c2ccc(OC3CCN(Cc4ccccn4)CC3)cc2)c1C,EC50,HEK293 [18],2.57 µM (active)
same,IC50,HEK293 [19],4.94 µM (active)
same,IC50,HEK293 [20],13.8 µM (active)
same,IC50,HEK293 [21],9.64 µM (active)
same,IC50,[22],> 80 µM (inactive)
same,AC50,INS1,3.87 µM (active)
Cc1ccc(C)c(OCC(O)CN2CCN(CCN3C(=O)c4cccc5cccc(c45)C3=O)CC2)c1 (stereo not drawn),CC50,[23],15.8 µM (active)
same,EC50,[24],6.21 µM (active)
same,EC50,[25],3.71 µM (active)
same,IC50,Bcl-2-related protein A1,> 20 µM (inactive)
same,IC50,[26],7.55 µM (active)
same,IC50,[27],9.34 µM (active)
same,AC50,[28],7.35 µM (active)
CCN(CC)S(=O)(=O)c1cccc(NC(=O)c2ccc(Br)cc2)c1,EC50,HEK293 [18],11.6 µM (active)
same,IC50,HEK293 [19],10.1 µM (active)
same,IC50,HEK293 [20],14.1 µM (active)
same,IC50,HEK293 [21],7.75 µM (active)
same,AC50,[29],3.55 µM (active)
O=C1c2oc3ccccc3c(=O)c2C(c2ccccc2)N1c1nccs1 (stereo not drawn),IC50,SUMO E1/E2,22.4 µM (active)
CCCN(CCc1ccccc1)[C@H]1CCc2c(O)cccc2C1,AC50,Cytochrome P450 1A2,12.6 µM (inconclusive)
same,AC50,Cytochrome P450 3A4,inconclusive
